In article PMC3171608 (Bioorganic & medicinal chemistry, 2011):

Columns and labels:
[1] = tested on: other kinesin family members; conditions: cited from earlier work
[2] = biological target: mammalian centromere-associated kinesin (MCAK) (Homo sapiens, UniProt Q99661); experiment: Kinesin ATPase selectivity panel, MCAK; format: biochemical; conditions: panel of mitotic kinesins; data not shown
HeLa cells = experiment: Phenotypic assay in cultured HeLa cells; format: cell-based, human; conditions: 1 μM compound
[3] = biological target: T1, centromeric protein E (CENP-E) (Homo sapiens, UniProt Q02224); experiment: Kinesin ATPase selectivity panel, CENP-E; format: biochemical; conditions: panel of mitotic kinesins; data not shown
T1 sequence (Q02224 6-329 limits assumed): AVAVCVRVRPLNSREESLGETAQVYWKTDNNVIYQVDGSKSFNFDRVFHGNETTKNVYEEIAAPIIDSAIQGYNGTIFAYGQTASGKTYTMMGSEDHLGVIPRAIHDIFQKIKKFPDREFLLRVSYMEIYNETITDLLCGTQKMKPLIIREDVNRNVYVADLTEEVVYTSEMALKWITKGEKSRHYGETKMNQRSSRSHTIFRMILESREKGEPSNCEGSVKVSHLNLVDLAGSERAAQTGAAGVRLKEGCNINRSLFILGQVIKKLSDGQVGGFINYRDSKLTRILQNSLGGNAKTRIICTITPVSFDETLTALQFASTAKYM

chromokinesin = conditions: panel of mitotic kinesins; data not shown
NCI60 tumor panel = NCI60 tumor panel growth inhibition; conditions: for GI50: read-out: Average GI50 in leukemia and colon tumor cell lines
M14 = experiment: NCI60 growth inhibition, M14; format: cell-based; conditions: melanoma M14, GI50

Sequence of mammalian centromere-associated kinesin (MCAK) (Q99661 258-588 limits assumed): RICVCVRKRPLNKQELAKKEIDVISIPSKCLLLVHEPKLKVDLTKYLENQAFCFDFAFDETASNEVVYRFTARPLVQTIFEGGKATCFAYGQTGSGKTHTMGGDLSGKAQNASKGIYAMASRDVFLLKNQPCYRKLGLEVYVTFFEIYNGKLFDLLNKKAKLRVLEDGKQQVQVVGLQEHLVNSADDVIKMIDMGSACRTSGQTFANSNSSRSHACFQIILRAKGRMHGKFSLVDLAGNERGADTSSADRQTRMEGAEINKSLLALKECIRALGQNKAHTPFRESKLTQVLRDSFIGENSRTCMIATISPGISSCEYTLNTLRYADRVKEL

Row | Compound | Activity against other kinesin family members [1] | Inhibitory activity against MCAK [2] | Interphase microtubule morphology (HeLa cells) | Inhibitory activity against CENP-E [3] | Inhibitory activity against chromokinesin (chromokinesin) | GI50 (NCI60 tumor panel) | Fold increase in activity over monastrol (M14) | Average fold increase in potency over 1 (NCI60 tumor panel; NCI60 panel GI50) | Average fold increase in potency over Monastrol (NCI60 tumor panel; NCI60 panel GI50)
1 | N[C@@H](CSC(c1ccccc1)(c1ccccc1)c1ccccc1)C(=O)O [Compound 1, S-trityl-L-cysteine] | no activity | – | – | – | – | – | – | – | –
2 | N[C@H](CO)CSC(c1ccccc1)(c1ccccc1)c1ccccc1 [Compound 4, (R)-2-amino-3-(tritylthio)propan-1-ol] | – | no measurable inhibition detected | normal | no measurable inhibition detected | – | – | – | – | –
3 | COc1ccc(C(SC[C@H](N)CO)(c2ccccc2)c2ccccc2)cc1 [Compound 5, (R)-2-amino-3-((4-methoxyphenyl)diphenylmethylthio)propan-1-ol] | – | no measurable inhibition detected | normal | no measurable inhibition detected | no measurable inhibition detected | ≤ 230 nM | – | – | –
4 | COc1ccc(C(SCCN)(c2ccccc2)c2ccccc2)cc1 [Compound 7] | – | – | normal | – | – | ≤ 230 nM | 1200 fold | ~35 fold | ~143 fold
